# Where a SMILES comes first, the peptide text is derived from it. [ ]: non-standard residue; d: D form. The star is where a group is joined. Tridecanoyl(3R-OH,11-Me) = CCC(C)CCCCCCC[C@@H](O)CC(=O)*; X2 = CCC(C)CC(C)CCCCC[C@@H](O)CC(=O)*; X1 = CCC(C)CC(C)CCCC[C@@H](O)CC(=O)*
# How the values were obtained:
# Bacillus thuringiensis = test: Antibacterial activity against Bacillus thuringiensis SCSIO BT01; type: functional
# Bacillus subtilis [1] = test: Antibacterial activity against Bacillus subtilis SCSIO BS01; type: functional
# Staphylococcus aureus [2] = test: Antibacterial activity against Staphylococcus aureus ATCC 29213; type: functional
# Staphylococcus aureus [3] = test: Antibacterial activity against methicillin-resistant Staphylococcus aureus; type: functional
# Staphylococcus aureus [4] = test: Antibacterial activity against Staphylococcus aureus by broth dilution assay; type: functional
# Salmonella typhi = test: Antibacterial activity against Salmonella typhi by broth dilution assay; type: functional, Salmonella enterica subsp. enterica serovar Typhi; details: Salmonella enterica
# Pseudomonas aeruginosa = test: Antibacterial activity against Pseudomonas aeruginosa by broth dilution assay; type: functional
# Bacillus subtilis [5] = test: Antibacterial activity against Bacillus subtilis by broth dilution assay; type: functional
# Escherichia coli [6] = test: Antibacterial activity against Escherichia coli by broth dilution assay; type: functional
# Escherichia coli [7] = test: Antibacterial activity against Escherichia coli by serial dilution assay; type: functional
# Bacillus subtilis [8] = test: Antibacterial activity against Bacillus subtilis by serial dilution assay; type: functional
# Proteus vulgaris = test: Antibacterial activity against Proteus vulgaris by serial dilution assay; type: functional
# Micrococcus luteus = test: Antibacterial activity against Micrococcus luteus by serial dilution assay; type: functional
# Staphylococcus aureus [9] = test: Antibacterial activity against Staphylococcus aureus incubated for 18 hrs; type: functional
# Enterococcus faecalis = test: Antibacterial activity against Enterococcus faecalis ATCC 29212; type: functional
smiles,measurement,setting,value
C=C1CC[C@H](Cl)C(C)(C)[C@@H]1C[C@@]12OC(C)(C)[C@H](Cl)C[C@]1(Cl)C(=O)c1c(O)cc(O)cc1C2=O,MIC,Bacillus thuringiensis,≤ 2 µg/mL
same,MIC,Bacillus subtilis [1],≤ 2 µg/mL
same,MIC,Staphylococcus aureus [2],≤ 2 µg/mL
C/C(C=O)=C/CC/C(C)=C/C[C@@]12OC(C)(C)[C@H](Cl)C[C@]1(Cl)C(=O)c1c(O)cc(O)cc1C2=O,MIC,Bacillus thuringiensis,4 to 32 µg/mL
same,MIC,Bacillus subtilis [1],4 to 32 µg/mL
same,MIC,Staphylococcus aureus [2],4 to 32 µg/mL
CC(C)=CCc1cc(C(=O)Nc2c(O)c3ccc(O[C@@H]4OC(C)(C)[C@H](O)[C@@H](OC(N)=O)[C@H]4O)c(C)c3oc2=O)ccc1O,MIC,Staphylococcus aureus [3],8 to 16 µg/mL
CC[C@H]1[C@@H]2C=C[C@@H]3[C@H]4C/C=C\C(=O)NCCC[C@@H]5NC(=O)C(=C5O)C(=O)/C=C/[C@@H]4C[C@@H]3[C@H]2C[C@H]1C,MIC,Staphylococcus aureus [3],1 to 4 µg/mL
CC(C)=CCc1cc(C(=O)Nc2c(O)c3ccc(O[C@@H]4OC(C)(C)[C@H](O)[C@@H](O)[C@H]4O)c(C)c3oc2=O)ccc1O,MIC,Staphylococcus aureus [3],> 64 µg/mL
"CCC(C)CCCCCCC[C@@H](O)CC(=O)N[C@@H](CCC(=O)O)C(=O)N[C@@H](CC(C)C)C(=O)N[C@@H](CC(C)C)C(=O)N[C@@H](C(=O)N[C@@H](CC(=O)O)C(=O)N[C@@H](CC(C)C)C(=O)N[C@@H](CC(C)C)C(=O)O)C(C)C (stereo partly drawn) ({Tridecanoyl(3R-OH,11-Me)}-ELL[dV]DLL-OH)",MIC,Staphylococcus aureus [4],16 µg/mL
same,MIC,Salmonella typhi,16 µg/mL
same,MIC,Pseudomonas aeruginosa,16 µg/mL
same,MIC,Bacillus subtilis [5],16 µg/mL
CO[C@@H]1/C=C/[C@H](O)C[C@@H](O)C/C=C\C=C\[C@@H](O)C/C=C/C=C\C(=O)O[C@H](C)CCC[C@@H]1O,MIC,Escherichia coli [6],≥ 16 µg/mL
same,MIC,Bacillus subtilis [5],≥ 16 µg/mL
CC[C@H]1[C@@H]2C=C[C@@H]3[C@H]4/C=C/CC(=O)NCCC[C@@H]5NC(=O)C(=C5O)C(=O)/C=C/[C@@H]4C[C@@H]3[C@H]2C[C@H]1C,MIC,Staphylococcus aureus [3],1 to 4 µg/mL
O=C1NC(=O)C(c2ccc(O)c([N+](=O)[O-])c2)=C1c1ccc(O)cc1,MIC,Escherichia coli [7],25 to 100 µg/mL
same,MIC,Bacillus subtilis [8],25 to 100 µg/mL
same,MIC,Proteus vulgaris,25 to 100 µg/mL
same,MIC,Micrococcus luteus,25 to 100 µg/mL
C[C@@H]1O[C@](C)(C(=O)O)O[C@H]1/C=C/C=C/C=C/C(=O)O[C@H]1CC[C@H](c2ccc3c(c2O)C(=O)c2cc(O)c4c(c2C3=O)C(=O)[C@H](O)[C@](C)(O)C4)O[C@@H]1C,MIC,Staphylococcus aureus [9],2 to 6 µg/mL
"CCC(C)CCCCCCC[C@@H](O)CC(=O)N[C@@H](CCC(=O)OC)C(=O)N[C@@H](CC(C)C)C(=O)N[C@@H](CC(C)C)C(=O)N[C@@H](CC(C)C)C(=O)O (stereo partly drawn) ({Tridecanoyl(3R-OH,11-Me)}-E(OMe)LLL-OH)",MIC,Staphylococcus aureus [4],0.03 µg/mL
same,MIC,Salmonella typhi,0.01 µg/mL
same,MIC,Pseudomonas aeruginosa,0.03 µg/mL
same,MIC,Bacillus subtilis [5],0.01 µg/mL
C[C@@H](O)CCC/C=C/C=C/[C@H](O)C[C@@H](O)C/C=C\C=C\[C@@H](O)C/C=C/C=C\C(=O)O,MIC,Escherichia coli [6],8 µg/mL
same,MIC,Bacillus subtilis [5],8 µg/mL
CC(C)=CCc1cc(C(=O)Nc2c(O)c3ccc(O[C@@H]4OC(C)(C)[C@H](O)[C@@H](O)[C@H]4O)c(C)c3oc2=O)cc(O)c1O,MIC,Staphylococcus aureus [3],> 64 µg/mL
Cc1cc(=O)n(C)c2c1C(=O)c1c(C)cc(=O)n3c1[C@@]2(O)C[C@]3(C)O,MIC,Bacillus thuringiensis,1 to 4 µg/mL
same,MIC,Enterococcus faecalis,1 to 4 µg/mL
same,MIC,Staphylococcus aureus [2],1 to 4 µg/mL
C=C1CC[C@H](Br)C(C)(C)[C@@H]1C[C@@]12OC(C)(C)[C@H](Cl)C[C@]1(Cl)C(=O)c1c(O)cc(O)cc1C2=O,MIC,Bacillus thuringiensis,≤ 0.5 µg/mL
same,MIC,Bacillus subtilis [1],≤ 0.5 µg/mL
same,MIC,Staphylococcus aureus [2],≤ 0.5 µg/mL
O=C1NC(=O)C(c2ccc(O)c([N+](=O)[O-])c2)=C1c1ccc(O)c([N+](=O)[O-])c1,MIC,Escherichia coli [7],25 to 100 µg/mL
same,MIC,Bacillus subtilis [8],25 to 100 µg/mL
same,MIC,Proteus vulgaris,25 to 100 µg/mL
same,MIC,Micrococcus luteus,25 to 100 µg/mL
CCC(C)CCCCCCC[C@@H](O)CC(=O)N[C@@H](CCC(=O)O)C(=O)N[C@@H](CC(C)C)C(=O)O (stereo partly drawn),MIC,Staphylococcus aureus [4],0.01 µg/mL
same,MIC,Salmonella typhi,0.03 µg/mL
same,MIC,Pseudomonas aeruginosa,0.03 µg/mL
same,MIC,Bacillus subtilis [5],0.01 µg/mL
CCC(C)CC(C)CCCCC[C@@H](O)CC(=O)N[C@@H](CCC(=O)O)C(=O)N[C@@H](CC(C)C)C(=O)N[C@@H](CC(C)C)C(=O)N[C@@H](C(=O)N[C@@H](CC(=O)O)C(=O)N[C@@H](CC(C)C)C(=O)N[C@@H](CC(C)C)C(=O)O)C(C)C (stereo partly drawn) (X2-ELL[dV]DLL-OH),MIC,Staphylococcus aureus [4],16 µg/mL
same,MIC,Salmonella typhi,32 µg/mL
same,MIC,Pseudomonas aeruginosa,16 µg/mL
same,MIC,Bacillus subtilis [5],32 µg/mL
CC(C)=CCC/C(C)=C/C[C@]1(O)C(=O)c2cc(O)cc(O)c2C(=O)[C@@]1(Cl)CC=C(C)C,MIC,Bacillus thuringiensis,≤ 2 µg/mL
same,MIC,Bacillus subtilis [1],≤ 2 µg/mL
same,MIC,Staphylococcus aureus [2],≤ 2 µg/mL
C[C@@H]1CCC/C=C/C=C/[C@H](O)C[C@@H](O)C[C@@H]2O[C@@H]2/C=C/[C@@H](O)C/C=C/C=C\C(=O)O1 [GAGEOMACROLACTIN 1],MIC,Staphylococcus aureus [4],0.01 µg/mL
same,MIC,Salmonella typhi,0.02 µg/mL
same,MIC,Pseudomonas aeruginosa,0.01 µg/mL
same,MIC,Escherichia coli [6],0.02 µg/mL
same,MIC,Bacillus subtilis [5],0.01 µg/mL
CCC(C)CC(C)CCCC[C@@H](O)CC(=O)N[C@@H](CCC(=O)O)C(=O)N[C@@H](CC(C)C)C(=O)N[C@@H](CC(C)C)C(=O)N[C@@H](CC(C)C)C(=O)O (stereo partly drawn) (X1-ELLL-OH),MIC,Staphylococcus aureus [4],0.03 µg/mL
same,MIC,Salmonella typhi,0.01 µg/mL
same,MIC,Pseudomonas aeruginosa,0.01 µg/mL
same,MIC,Bacillus subtilis [5],0.03 µg/mL
COC(=O)[C@@]1(C)O[C@@H](C)[C@H](/C=C/C=C/C=C/C(=O)O[C@H]2CC[C@H](c3ccc4c(c3O)C(=O)C3=C(C4=O)[C@@]4(O)C(=O)[C@H](O)[C@](C)(O)C[C@@]4(O)C=C3)O[C@@H]2C)O1,MIC,Staphylococcus aureus [9],2 to 6 µg/mL
C[C@@H]1CCC/C=C/C=C/[C@H](O)C[C@@H](O)[C@H](O)/C=C\C=C\[C@@H](O)C/C=C/C=C\C(=O)O1,MIC,Staphylococcus aureus [4],0.1 µg/mL
same,MIC,Escherichia coli [6],0.3 µg/mL
same,MIC,Bacillus subtilis [5],100 µg/mL
CC(=O)O[C@H]1[C@@H](O)[C@H](Oc2ccc3c(O)c(NC(=O)c4cc(O)c(O)c(CC=C(C)C)c4)c(=O)oc3c2C)OC(C)(C)[C@@H]1O,MIC,Staphylococcus aureus [3],> 64 µg/mL
